# Assay results: PMC6731595, “The anti-parasitic agent suramin and several of its analogues are inhibitors of the DNA binding protein Mcm10” (Open Biology, 2019)
# Read-outs that look alike come from different tables or passages of the source.
# T1: full-length Xenopus Mcm10 (xMcm10-FL) (Xenopus laevis, UniProt Q5EAW4)
# T1 construct: The full-length xMcm10 was expressed with MBP fused onto the N-terminus and 6x-His tag attached to the C-terminus; 6xHis (C); made in house; host or cells: E. coli BL21(DE3), as for the ID constructs ('as described above')
# T1 sequence (Q5EAW4 1-860): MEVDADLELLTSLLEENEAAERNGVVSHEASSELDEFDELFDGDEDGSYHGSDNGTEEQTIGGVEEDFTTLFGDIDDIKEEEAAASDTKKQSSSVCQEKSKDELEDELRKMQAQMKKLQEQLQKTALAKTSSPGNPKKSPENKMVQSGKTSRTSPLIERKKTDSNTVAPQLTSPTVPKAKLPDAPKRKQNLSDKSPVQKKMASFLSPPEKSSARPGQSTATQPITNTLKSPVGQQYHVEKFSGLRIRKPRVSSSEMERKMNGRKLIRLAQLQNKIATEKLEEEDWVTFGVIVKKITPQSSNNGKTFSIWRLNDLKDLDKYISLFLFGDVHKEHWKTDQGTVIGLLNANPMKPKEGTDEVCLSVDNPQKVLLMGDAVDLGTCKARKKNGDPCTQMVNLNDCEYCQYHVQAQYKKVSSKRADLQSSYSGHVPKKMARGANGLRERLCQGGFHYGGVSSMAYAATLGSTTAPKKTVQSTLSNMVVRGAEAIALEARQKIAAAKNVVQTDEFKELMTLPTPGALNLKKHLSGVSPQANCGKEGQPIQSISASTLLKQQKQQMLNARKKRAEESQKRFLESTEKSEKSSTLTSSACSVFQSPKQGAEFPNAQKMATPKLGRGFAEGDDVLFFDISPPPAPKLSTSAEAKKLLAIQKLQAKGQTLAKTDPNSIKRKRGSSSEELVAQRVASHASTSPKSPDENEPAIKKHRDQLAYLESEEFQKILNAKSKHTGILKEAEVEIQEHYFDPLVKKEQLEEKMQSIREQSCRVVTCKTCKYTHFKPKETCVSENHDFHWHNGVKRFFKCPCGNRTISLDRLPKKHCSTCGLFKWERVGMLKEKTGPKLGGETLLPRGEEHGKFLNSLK
# T2: human Mcm10 internal domain (hMcm10-ID) (Homo sapiens, UniProt Q7L590)
# T2 construct: hMcm10-ID (residues 237 to 436) were expressed in E. coli strain BL21(DE3); 6xHis (HRV 3C site) (N, cleaved yes); made in house; host or cells: E. coli BL21(DE3)
# T2 sequence (Q7L590 237-436): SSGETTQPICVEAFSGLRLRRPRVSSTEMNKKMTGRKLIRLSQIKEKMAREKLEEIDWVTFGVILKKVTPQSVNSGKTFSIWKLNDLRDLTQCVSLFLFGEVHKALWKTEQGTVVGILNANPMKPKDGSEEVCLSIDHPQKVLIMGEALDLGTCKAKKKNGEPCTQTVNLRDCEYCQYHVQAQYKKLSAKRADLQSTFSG
# T3: hMcm10-ID (Homo sapiens, UniProt Q7L590)
# T3 construct: hMcm10-ID (residues 237 to 436) were expressed in E. coli strain BL21(DE3); 6xHis (HRV 3C site) (N, cleaved yes); made in house; host or cells: E. coli BL21(DE3)
# T3 sequence (Q7L590 237-436): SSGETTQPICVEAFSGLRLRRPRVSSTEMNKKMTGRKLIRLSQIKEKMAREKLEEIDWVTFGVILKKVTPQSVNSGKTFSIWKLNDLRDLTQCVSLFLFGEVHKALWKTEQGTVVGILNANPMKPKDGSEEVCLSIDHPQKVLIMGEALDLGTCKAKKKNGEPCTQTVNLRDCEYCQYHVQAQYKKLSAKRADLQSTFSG
# T4: xMcm10-ID (Xenopus laevis, UniProt Q5EAW4 229-427)
# T4 sequence: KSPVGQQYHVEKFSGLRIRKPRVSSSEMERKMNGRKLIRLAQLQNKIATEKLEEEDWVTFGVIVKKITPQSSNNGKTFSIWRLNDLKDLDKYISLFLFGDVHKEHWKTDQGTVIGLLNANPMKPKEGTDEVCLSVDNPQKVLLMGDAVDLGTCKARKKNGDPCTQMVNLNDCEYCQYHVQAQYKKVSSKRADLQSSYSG
# T5: hMcm10-ID (Homo sapiens, UniProt Q7L590 237-436)
# T5 sequence: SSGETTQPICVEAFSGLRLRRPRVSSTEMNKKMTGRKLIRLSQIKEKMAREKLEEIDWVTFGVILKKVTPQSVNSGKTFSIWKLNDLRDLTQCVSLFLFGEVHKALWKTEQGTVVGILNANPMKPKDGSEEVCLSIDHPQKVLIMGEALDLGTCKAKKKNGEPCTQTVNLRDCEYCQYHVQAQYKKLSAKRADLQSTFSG
# T6: xMcm10-FL (Xenopus laevis, UniProt Q5EAW4 1-860)
# T6 sequence: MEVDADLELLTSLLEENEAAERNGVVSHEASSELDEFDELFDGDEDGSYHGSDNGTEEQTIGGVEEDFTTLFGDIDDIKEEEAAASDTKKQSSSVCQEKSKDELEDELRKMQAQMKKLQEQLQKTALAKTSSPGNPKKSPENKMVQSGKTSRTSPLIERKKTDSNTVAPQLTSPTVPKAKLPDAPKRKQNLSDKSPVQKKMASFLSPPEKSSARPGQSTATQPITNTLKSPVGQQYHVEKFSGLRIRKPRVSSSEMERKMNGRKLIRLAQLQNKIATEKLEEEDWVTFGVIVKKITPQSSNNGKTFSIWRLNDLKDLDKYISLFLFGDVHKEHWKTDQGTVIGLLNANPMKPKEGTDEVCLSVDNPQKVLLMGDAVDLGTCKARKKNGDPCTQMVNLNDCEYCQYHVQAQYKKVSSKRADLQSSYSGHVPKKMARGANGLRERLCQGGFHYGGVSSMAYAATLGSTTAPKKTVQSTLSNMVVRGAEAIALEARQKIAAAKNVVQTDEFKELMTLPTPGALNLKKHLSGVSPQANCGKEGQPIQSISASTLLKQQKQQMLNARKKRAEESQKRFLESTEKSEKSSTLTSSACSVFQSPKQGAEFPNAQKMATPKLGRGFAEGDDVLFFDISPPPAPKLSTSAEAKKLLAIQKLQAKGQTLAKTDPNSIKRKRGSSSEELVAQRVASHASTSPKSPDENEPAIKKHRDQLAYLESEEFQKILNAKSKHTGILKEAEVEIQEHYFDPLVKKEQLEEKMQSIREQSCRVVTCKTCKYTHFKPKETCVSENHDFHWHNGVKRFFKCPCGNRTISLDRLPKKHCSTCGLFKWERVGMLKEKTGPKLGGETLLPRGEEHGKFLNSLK
# Experiments:
# [1] = molecular target: T7, human RPA70AB (A and B DNA binding domains of RPA70) (Homo sapiens, UniProt P27694); assay: Fluorescence polarization competition assay, displacement of 5′-6FAM ssDNA probe from RPA70AB; details: for Ki: mean ± s.e.m., n ≥ 3
# T7 construct: recombinant human RPA70AB (181-422) in a pSV281 vector; 6xHis (TEV site) (N, cleaved yes); made in house; host or cells: Escherichia coli BL21(DE3)
# Description: (§1) A fluorescence polarization (FP) HTS assay was established to detect inhibitors of the binding of the 5′-6FAM 10-mer oligo probe to Mcm10. Test compounds dissolved in DMSO were added to 384-well plates (Corning 4514) using an Echo 550 acoustic dispenser (final DMSO 0.1%) to achieve a final single point screening concentration of 10 µM. Then 10 µl of 2× Xenopus internal domain Mcm10 (xMcm10-ID, final concentration 2 µM) in binding buffer (20 mM Tris HCl, 100 mM NaCl, 5% glycerol, and 0.01% triton, pH 7.5) was added using the Combi nL Multidrop dispenser. Finally, 10 µl of 2× 5′-6FAM DNA (final 12.5 nM) in binding buffer was added using the Multidrop. DMSO (0.1%, high signal) and probe only (low signal) controls were included on every plate. Plates were mixed for 2 min, incubated for 60 min at RT in the dark, and read on a CLARIOstar multimode plate reader (excitation: 482-16, emission: 530-40, dichroic filter: LP504).
# (§2) The LOPAC pilot screen identified the sulfhydryl reagent 4-chloromercuribenzoic acid as an inhibitor in the fluorescence polarization (FP) assay. As there was no known Mcm10 inhibitor, 4-chloromercuribenzoic acid (30 μM) was used as a positive control on initial screening plates. Following the discovery of suramin as a Mcm10 inhibitor, suramin (7 μM) was used as a positive control on subsequent screening plates. To confirm activity, screening hits were tested in dose response experiments (8 concentrations in duplicate) using xMcm10-ID. Similar dose response experiments were conducted with suramin and its analogs to confirm activity for hMcm10-ID (1 μM) and xMcm10-FL (2 μM) and to determine selectivity relative to RPA70AB (0.4 μM). Saturation experiments for each protein were conducted using increasing concentrations of protein with a fixed probe concentration (12.5 nM). FP was measured in mP units, and ∆mP values for each well were calculated as the difference between the measured mP and the average of the “probe only” controls. […] The parallel and perpendicular mP values were also used to calculate total fluorescence intensity (TFI) determined by the sum of parallel mP + (2 x perpendicular mP). TFI was used to detect fluorescence interference by compounds [1]. […] IC50 values were calculated using the four parameter logistic equation in Prism 6.0 (GraphPad). Ki values were obtained using an online Ki calculator according to the equations of Nikolovska-Coleska (http://sw16.im.med.umich.edu/soft-ware/calc_ki/). KD values were calculated using the one site or two site binding equations in Prism 6.0 (GraphPad).
# [2] = molecular target: T1, full-length Xenopus Mcm10 (xMcm10-FL); assay: Fluorescence polarization competition assay, displacement of 5′-6FAM ssDNA probe from xMcm10-FL; format: binding; details: averages of n = 2; xMcm10-FL 2 μM
# Description: as §1, §2
# [3] = molecular target: T2, human Mcm10 internal domain (hMcm10-ID); assay: Fluorescence polarization competition assay, displacement of 5′-6FAM 10-mer ssDNA probe from hMcm10-ID; format: binding; details: mean ± s.e.m., n ≥ 3; hMcm10-ID 1 μM, probe 12.5 nM
# Description: as §1, §2
# hMcm10-ID [4] = molecular target: T3, hMcm10-ID; assay: Surface plasmon resonance binding kinetics on immobilized hMcm10-ID (Biacore S200)
# Description: SPR experiments were performed using a Biacore S200 (GE Healthcare) equipped with a research-grade CM5 sensor chip. hMcm10-ID, at a concentration of 15 µg ml^−1 in 10 mM sodium acetate, pH 4.5, […], using an amine coupling kit (GE Healthcare) to either flow cell 2 or 4 following manufacturer directions. The reference flow cell (either flow cell 1 or 3) was left untreated. All compounds were dissolved in running buffer (10 mM PBS, 150 mM NaCl, 0.005% P20, pH 7.4) prior to injection over the chip surface at a flow rate of 30 µl min^−1 and at a temperature of 25°C. Zero concentration samples were injected for double referencing. Data were collected at a rate of 40 Hz and were fitted to a simple 1 : 1 interaction model (unless otherwise noted) using the global data analysis within the Biacore S200 evaluation software.
# xMcm10-ID = molecular target: T4, xMcm10-ID; assay: fluorescence polarization; FP: 20 mM Tris-HCl, 100 mM NaCl, 5% glycerol, 0.01% Triton, pH 7.5, RT 60 min, 12.5 nM probe (0.1% DMSO in HTS); details: protein: recombinant; label: 5'-6-FAM; single strand
# hMcm10-ID [5] = molecular target: T5, hMcm10-ID; assay: as above; details: protein: recombinant; label: 5'-6-FAM; single strand
# RPA70AB = RPA70AB (Homo sapiens, UniProt P27694 181-422); assay: as above; details: protein: recombinant; label: 5'-6-FAM; single strand
# xMcm10-FL = molecular target: T6, xMcm10-FL; assay: as above; details: protein: recombinant; label: 5'-6-FAM; single strand
# T7 sequence (P27694 181-422): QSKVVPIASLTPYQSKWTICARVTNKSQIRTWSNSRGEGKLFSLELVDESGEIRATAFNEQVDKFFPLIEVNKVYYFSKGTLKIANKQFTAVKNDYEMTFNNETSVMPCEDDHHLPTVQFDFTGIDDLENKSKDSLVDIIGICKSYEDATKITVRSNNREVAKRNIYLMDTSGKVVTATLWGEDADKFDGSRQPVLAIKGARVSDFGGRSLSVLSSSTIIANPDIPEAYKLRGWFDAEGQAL
# RPA70AB, sequence (P27694 181-422): as above
"Ki ([1]; high-affinity component of biphasic displacement curve, read-out: fluorescence polarization hRPA70AB Ki1) [nM]","Ki ([1]; predominant low-affinity (or only) component, read-out: fluorescence polarization hRPA70AB Ki2) [nM]",selectivity RPA/ hMcm10 ([1]; ratio of hRPA70AB Ki2 to hMcm10-ID Ki (FP)),Ki [2] [nM],Ki [3] [nM],"surface plasmon resonance hMcm10-ID kd (hMcm10-ID [4]; 1:1 model, 6000–8000 RU, 25°C) [s^−1]","kon (hMcm10-ID [4]; 1:1 model, 6000–8000 RU, 25°C, read-out: surface plasmon resonance hMcm10-ID ka) [M⁻¹ s⁻¹]","Kd (hMcm10-ID [4]; calculated from association and dissociation rate constants, 1:1 model, 6000–8000 RU, read-out: surface plasmon resonance hMcm10-ID kinetic KD) [nM]",SPR binding kinetics (description of sensorgrams) (hMcm10-ID [4]; immobilized hMcm10-ID),Molecule,Kd (xMcm10-ID) [nM],Kd (hMcm10-ID [5]) [nM],Kd (RPA70AB) [nM],Kd (xMcm10-FL) [nM]
210 ± 40,23000 ± 1000,10,2900,2300 ± 100,0.35 ± 0.19,290000 ± 1.6e+10,1500 ± 200,predominantly rapid kinetics,O=C(Nc1cc(C(=O)Nc2ccc(S(=O)(=O)O)cc2)cc(C(=O)Nc2ccc(S(=O)(=O)O)cc2)c1)Nc1cc(C(=O)Nc2ccc(S(=O)(=O)O)cc2)cc(C(=O)Nc2ccc(S(=O)(=O)O)cc2)c1 [NF110],,,,
,,,,,,,,,ATGGTAGGCA (ssDNA) [5'-6FAM 10-mer],1300,2290,370,1100
